Assay results taken from ChEMBL document CHEMBL3632569, “Chemical constituents from Hericium erinaceus and their ability to stimulate NGF-mediated neurite outgrowth on PC12 cells” (Bioorg Med Chem Lett, 2015).
Activity calls are given as the source filed them. The calls are words filed in the database; no cut-off is given here.

How the values were obtained:
[1] = Cytotoxicity against rat PC12 cells assessed as cell viability at 10 and 20 uM after 72 hrs by SRB assay; assay type: cell-based; conditions: pc-12, 72 h
PC-12 [2] = assay: Effect on neurite outgrowth in rat PC12 cells at 10 and 20 uM after 48 hrs by inverted microscopic analysis; assay type: functional, cell-based
PC-12 [3] = assay: Stimulation of NGF-mediated neurite outgrowth in rat PC12 cells at 10 and 20 uM after 48 hrs by inverted microscopic analysis; assay type: functional, cell-based
PC-12 [4] = assay: Stimulation of NGF-mediated neurite outgrowth in rat PC12 cells at 20 uM after 48 hrs by inverted microscopic analysis (reference value: 15.32 +/- 0.25%); assay type: functional

## C/C(=C\CC(O)[C@@H](C)[C@H]1CC[C@@]2(C)C3=C(CC[C@]12C)[C@@]1(C)CC[C@H](O)C(C)(C)C1CC3)C(=O)O (stereo partly drawn)
[1]
  Activity: Non-toxic
PC-12 [2]
  Activity: inactive

## COc1cc2c(c3c1CC[C@](C)(CC(=O)C=C(C)C)O3)C(=O)OC2
[1]
  Activity: Non-toxic
PC-12 [3]
  Activity: Active
PC-12 [4]
  Activity: 21.79%
PC-12 [2]
  Activity: inactive

## COc1cc2c(c3c1CC[C@@](C)(CC(=O)C=C(C)C)O3)C(=O)OC2
[1]
  Activity: Non-toxic
PC-12 [3]
  Activity: Active
PC-12 [4]
  Activity: 17.85%
PC-12 [2]
  Activity: inactive

## C[C@H](CC[C@H](O)C(C)(C)O)[C@H]1CC[C@@]2(C)C3=C(CC[C@]12C)[C@@]1(C)CC[C@H](O)C(C)(C)C1CC3 (stereo partly drawn)
[1]
  Activity: Non-toxic
PC-12 [2]
  Activity: inactive

## CC(C)[C@@H](C)/C=C/[C@@H](C)[C@H]1CC[C@H]2C3=CC(=O)[C@@]4(O)C[C@@H](O)CC[C@]4(C)[C@@]3(O)CC[C@]12C
[1]
  Activity: Non-toxic
PC-12 [3]
  Activity: Active
PC-12 [2]
  Activity: inactive

## CC(C)[C@@H](C)/C=C/[C@@H](C)[C@H]1CC[C@H]2C3=C[C@@H](O)[C@@]4(O)C[C@@H](O)CC[C@]4(C)[C@H]3CC[C@]12C [CEREVISTEROL]
[1]
  Activity: Non-toxic
PC-12 [3]
  Activity: Active
PC-12 [2]
  Activity: inactive

## CC1(C)CC[C@]2(C(=O)O)CC[C@]3(C)C(=CC[C@@H]4[C@@]5(C)CC[C@H](O)C(C)(C)[C@@H]5CC[C@]43C)[C@@H]2C1 [OLEANOLIC_ACID]
[1]
  Activity: Non-toxic
PC-12 [2]
  Activity: inactive

## C[C@H]1[C@H](C)CC[C@]2(C(=O)O)CC[C@]3(C)C(=CC[C@@H]4[C@@]5(C)CC[C@H](O)C(C)(C)[C@@H]5CC[C@]43C)[C@H]12 [URSOLIC ACID]
[1]
  Activity: Non-toxic
PC-12 [2]
  Activity: inactive

## CC(C)[C@@H](C)/C=C/[C@@H](C)[C@H]1CC[C@@H]2[C@]1(C)CC[C@H]1[C@]23C=C[C@]2(C[C@@H](O)CC[C@]12C)OO3 [ERGOSTEROL PEROXIDE]
[1]
  Activity: Non-toxic
PC-12 [3]
  Activity: Active
PC-12 [2]
  Activity: inactive

## COc1cc2c(c3c1CCC(C)(CC(=O)C=C(C)C)O3)C(=O)OC2 (racemic)
[1]
  Activity: Non-toxic
PC-12 [3]
  Activity: Active
PC-12 [4]
  Activity: 19.96%
PC-12 [2]
  Activity: inactive

## C=C(C)[C@@H]1CC[C@]2(CO)CC[C@]3(C)[C@H](CC[C@@H]4[C@@]5(C)CC[C@H](O)C(C)(C)[C@@H]5CC[C@]43C)[C@@H]12 [BETULIN]
[1]
  Activity: Non-toxic
PC-12 [2]
  Activity: inactive

## CCCCCCCCCCCCCCCCCCCC(O)C(=O)N[C@@H](CO)C(O)[C@H](O)CCCCCCCCCCCCCCCCC (stereo partly drawn)
[1]
  Activity: Non-toxic
PC-12 [2]
  Activity: inactive
